Values quoted from earlier work in Sander's compilation of Henry's law constants (doi:10.1021/je0497045).

Experiment: Henry solubility constant Hcp at 298.15 K (mol/(m3 Pa))
Details: reference: Plyasunova et al. (2004); cited value

With `CC(C)(C)S` [2-methyl-2-propanethiol] as the molecule, how does the “Henry solubility constant Hcp” value read?
The value was 0.00045.

Which “Henry solubility constant Hcp” value does the source give for `CSSSC` [2,3,4-trithiapentane] here?
The value was 0.012.

For `CSC` [dimethyl sulfide], which “Henry solubility constant Hcp” value is on record?
The value was 0.0053.

For `CS` [methanethiol], which “Henry solubility constant Hcp” value is on record?
Its value is 0.0028.

Which “Henry solubility constant Hcp” value does the source give for `S=C=S` [carbon disulfide] here?
Its value is 0.00055.

For `CCCCCCCS` [1-heptanethiol], which “Henry solubility constant Hcp” value is on record?
Its value is 0.00042.

For `CCS` [ethanethiol], which “Henry solubility constant Hcp” value is on record?
Its value is 0.0023.

For `CCSCC` [diethyl sulfide], which “Henry solubility constant Hcp” value is on record?
The value was 0.0047.

With `CC(C)CCS` [3-methyl-1-butanethiol] as the molecule, how does the “Henry solubility constant Hcp” value read?
Its value is 0.00095.

For `CCCSCCC` [dipropyl sulfide], which “Henry solubility constant Hcp” value is on record?
Its value is 0.0033.

With `CC(C)SC(C)C` [di-(2-propyl)-sulfide] as the molecule, how does the “Henry solubility constant Hcp” value read?
The value was 0.003.

With `CCCSSCCC` [dipropyl disulfide] as the molecule, how does the “Henry solubility constant Hcp” value read?
Its value is 0.0022.

With `CCSSCC` [diethyl disulfide] as the molecule, how does the “Henry solubility constant Hcp” value read?
The value was 0.004.

With `CCCS` [1-propanethiol] as the molecule, how does the “Henry solubility constant Hcp” value read?
Its value is 0.0017.

For `CCCCCS` [1-pentanethiol], which “Henry solubility constant Hcp” value is on record?
Its value is 0.00087.

For `CCCCCCS` [1-hexanethiol], which “Henry solubility constant Hcp” value is on record?
Its value is 0.00052.

With `CCCSC` [methyl propyl sulfide] as the molecule, how does the “Henry solubility constant Hcp” value read?
The value was 0.0043.

For `CCCCS` [1-butanethiol], which “Henry solubility constant Hcp” value is on record?
The value was 0.0014.

For `CCC(C)S` (centres undefined) [2-butanethiol], which “Henry solubility constant Hcp” value is on record?
Its value is 0.0013.
